# Results: PubChem BioAssay (NCI)
#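 Method: 48-hour compound exposure of cells in 96-well plates, five concentrations, linear interpolation of endpoints. At the TGI there is no net growth.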
# Assays:
# Assay in all cases: NCI-60 cell line screen, 48 h
# UACC-257 melanoma = system: UACC-257 melanoma
# HOP-62 NSCLC = system: HOP-62 NSCLC
# SW-620 colon = system: SW-620 colon
# SF-268 CNS = system: SF-268 CNS
# MDA-MB-231 breast = system: MDA-MB-231 breast
# ACHN renal = system: ACHN renal
# NCI-H460 lung = system: NCI-H460 lung
# HL-60(TB) leukemia = system: HL-60(TB) leukemia
# OVCAR-8 ovarian = system: OVCAR-8 ovarian
# EKVX NSCLC = system: EKVX NSCLC
# CAKI-1 renal = system: CAKI-1 renal
# 786-0 renal = system: 786-0 renal
# SF-539 CNS = system: SF-539 CNS
# HS 578T breast = system: HS 578T breast
# NCI-H23 lung = system: NCI-H23 lung
# RXF 393 renal = system: RXF 393 renal
# U251 CNS = system: U251 CNS
# BT-549 breast = system: BT-549 breast
# OVCAR-4 ovarian = system: OVCAR-4 ovarian
# A549 NSCLC = system: A549 NSCLC
# SK-OV-3 ovarian = system: SK-OV-3 ovarian
# DU-145 prostate = system: DU-145 prostate
# UACC-62 melanoma = system: UACC-62 melanoma
# SK-MEL-5 melanoma = system: SK-MEL-5 melanoma
# MALME-3M melanoma = system: MALME-3M melanoma
# HCT-116 colon = system: HCT-116 colon
# HT29 colon = system: HT29 colon
# MDA-MB-435 = system: MDA-MB-435
# MOLT-4 leukemia = system: MOLT-4 leukemia
# T-47D breast = system: T-47D breast
# SN12C renal = system: SN12C renal
# SNB-19 CNS = system: SNB-19 CNS
# K-562 leukemia = system: K-562 leukemia
# LOX IMVI melanoma = system: LOX IMVI melanoma
# SK-MEL-28 melanoma = system: SK-MEL-28 melanoma
# TK-10 renal = system: TK-10 renal
# SNB-75 CNS = system: SNB-75 CNS
# SF-295 CNS = system: SF-295 CNS
# UO-31 renal = system: UO-31 renal
# SK-MEL-2 melanoma = system: SK-MEL-2 melanoma
# NCI/ADR-RES ovarian = system: NCI/ADR-RES ovarian
# SR leukemia = system: SR leukemia
# HCT-15 colon = system: HCT-15 colon
# NCI-H522 lung = system: NCI-H522 lung
# COLO 205 colon = system: COLO 205 colon
# M14 melanoma = system: M14 melanoma
# MCF7 breast = system: MCF7 breast
# KM12 colon = system: KM12 colon
# OVCAR-5 ovarian = system: OVCAR-5 ovarian
# PC-3 prostate = system: PC-3 prostate
# NCI-H226 lung = system: NCI-H226 lung
# IGROV1 ovarian = system: IGROV1 ovarian
# OVCAR-3 ovarian = system: OVCAR-3 ovarian
smiles,measurement,setting,value
C/C(=C\CO)CC/C=C(\C)CNc1ccc([N+](=O)[O-])cc1,TGI,UACC-257 melanoma,76.2 µM
same,TGI,HOP-62 NSCLC,> 100 µM
same,TGI,SW-620 colon,> 100 µM
same,TGI,SF-268 CNS,> 100 µM
same,TGI,MDA-MB-231 breast,> 100 µM
same,TGI,ACHN renal,> 100 µM
same,TGI,NCI-H460 lung,> 100 µM
same,TGI,HL-60(TB) leukemia,57.2 µM
same,TGI,OVCAR-8 ovarian,> 100 µM
same,TGI,EKVX NSCLC,> 100 µM
same,TGI,CAKI-1 renal,> 100 µM
same,TGI,786-0 renal,> 100 µM
same,TGI,SF-539 CNS,> 100 µM
same,TGI,HS 578T breast,71.6 µM
same,TGI,NCI-H23 lung,57.7 µM
same,TGI,RXF 393 renal,> 100 µM
same,TGI,U251 CNS,> 100 µM
same,TGI,BT-549 breast,37.5 µM
same,TGI,OVCAR-4 ovarian,> 100 µM
same,TGI,A549 NSCLC,> 100 µM
same,TGI,SK-OV-3 ovarian,> 100 µM
same,TGI,DU-145 prostate,> 100 µM
same,TGI,UACC-62 melanoma,> 100 µM
same,TGI,SK-MEL-5 melanoma,25.6 µM
same,TGI,MALME-3M melanoma,34.6 µM
same,TGI,HCT-116 colon,> 100 µM
same,TGI,HT29 colon,> 100 µM
same,TGI,MDA-MB-435,84.9 µM
same,TGI,MOLT-4 leukemia,18.4 µM
same,TGI,T-47D breast,80 µM
same,TGI,SN12C renal,> 100 µM
same,TGI,SNB-19 CNS,> 100 µM
same,TGI,K-562 leukemia,66.5 µM
same,TGI,LOX IMVI melanoma,> 100 µM
same,TGI,SK-MEL-28 melanoma,> 100 µM
same,TGI,TK-10 renal,46.7 µM
same,TGI,SNB-75 CNS,> 100 µM
same,TGI,SF-295 CNS,> 100 µM
same,TGI,UO-31 renal,45.9 µM
same,TGI,SK-MEL-2 melanoma,79.5 µM
same,TGI,NCI/ADR-RES ovarian,64.5 µM
same,TGI,SR leukemia,27.1 µM
same,TGI,HCT-15 colon,> 100 µM
same,TGI,NCI-H522 lung,66.8 µM
same,TGI,COLO 205 colon,> 100 µM
same,TGI,M14 melanoma,> 100 µM
same,TGI,MCF7 breast,> 100 µM
same,TGI,KM12 colon,64.2 µM
same,TGI,OVCAR-5 ovarian,> 100 µM
same,TGI,PC-3 prostate,66.2 µM
same,TGI,NCI-H226 lung,> 100 µM
same,TGI,IGROV1 ovarian,> 100 µM
same,TGI,OVCAR-3 ovarian,48.2 µM
